Counter-ions that a name gives are not always drawn. Like-named read-outs stand apart in the source and are kept apart here.
Columns and labels:
Pseudomonas aeruginosa [1] = assay: In vitro bactericidal synergism, broth dilution checkerboard; assay type: cell-based; conditions: for MBC: Pseudomonas aeruginosa, drug alone
[2] = system: Pseudomonas aeruginosa A9843A; assay type: in vivo, mice; conditions: intramuscular, mice; as effective as combination 1.25 mg./kg. BL-P1908 + 2 mg./kg. amikacin
Pseudomonas aeruginosa [3] = conditions: prior art; cited from earlier work

SMILES: NCC[C@H](O)C(=O)N[C@@H]1C[C@H](N)[C@@H](O[C@H]2O[C@H](CN)[C@@H](O)[C@H](O)[C@H]2O)[C@H](O)[C@H]1O[C@H]1O[C@H](CO)[C@@H](O)[C@H](N)[C@H]1O [Amikacin, 1-[L-(-)-γ-amino-α-hydroxybutryl]kanamycin A]
- MBC (Pseudomonas aeruginosa [1]; strain A20552, read-out: Minimum Bactericidal Concentration): 8 µg/mL
- MBC (Pseudomonas aeruginosa [1]; strain A21509, read-out: Minimum Bactericidal Concentration): 125 µg/mL
- MBC (Pseudomonas aeruginosa [1]; strain A21510, read-out: Minimum Bactericidal Concentration): 64 µg/mL
- strain sensitivity (Pseudomonas aeruginosa [1]; strain A9843A): sensitive
- strain sensitivity (Pseudomonas aeruginosa [1]; strain A20480): sensitive
- strain sensitivity (Pseudomonas aeruginosa [1]; strain A20552): sensitive
- strain sensitivity (Pseudomonas aeruginosa [1]; strain A20620): resistant
- strain sensitivity (Pseudomonas aeruginosa [1]; strain A21509): resistant
- strain sensitivity (Pseudomonas aeruginosa [1]; strain A21510): resistant
- equally effective dosage, drug alone [2]: 8 mg/kg

SMILES: NCC[C@H](O)C(=O)N[C@@H]1C[C@H](N)[C@@H](O[C@H]2O[C@H](CN)[C@@H](O)[C@H](O)[C@H]2O)[C@H](O)[C@H]1O[C@H]1O[C@H](CO)[C@@H](O)[C@H](N)[C@H]1O [amikacin sulfate]
- MBC (Pseudomonas aeruginosa [1]; read-out: Minimum Bactericidal Concentration, strain A9843A): 4 µg/mL

SMILES: CC1(C)S[C@@H]2[C@H](NC(=O)C(c3ccccc3)S(=O)(=O)O)C(=O)N2[C@H]1C(=O)O (stereo partly shown) [sulbenicillin]
- potency against Pseudomonas aeruginosa (Pseudomonas aeruginosa [3]): relatively low potency

SMILES: CC1(C)S[C@@H]2[C@H](NC(=O)[C@H](C(=O)O)c3ccsc3)C(=O)N2[C@H]1C(=O)O [ticarcillin]
- potency against Pseudomonas aeruginosa (Pseudomonas aeruginosa [3]): relatively low potency
